Experimental data as given in PMC4286194 (Biochemical Journal, 2015).

Tests used:
Assay in all cases: Kinase profiling
Format in all cases: biochemical
[1] = biological target: T1, PRAK (Homo sapiens, UniProt Q8IW41)
T1 sequence (Q8IW41 1-473): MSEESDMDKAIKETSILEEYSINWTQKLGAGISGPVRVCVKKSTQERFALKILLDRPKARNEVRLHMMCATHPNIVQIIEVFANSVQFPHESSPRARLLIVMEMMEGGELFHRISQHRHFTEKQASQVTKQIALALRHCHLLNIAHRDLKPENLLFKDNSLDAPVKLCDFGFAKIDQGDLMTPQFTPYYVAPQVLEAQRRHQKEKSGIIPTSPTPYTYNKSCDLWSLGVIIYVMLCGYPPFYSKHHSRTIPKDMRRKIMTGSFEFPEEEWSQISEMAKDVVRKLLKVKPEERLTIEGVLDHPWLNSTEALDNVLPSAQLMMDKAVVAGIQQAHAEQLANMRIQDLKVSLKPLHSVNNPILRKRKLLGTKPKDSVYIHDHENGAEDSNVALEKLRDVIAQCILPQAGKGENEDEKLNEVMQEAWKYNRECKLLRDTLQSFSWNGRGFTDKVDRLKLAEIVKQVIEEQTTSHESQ

[2] = biological target: PKB beta (Homo sapiens, UniProt P31751)
PKB beta, sequence (P31751 whole entry): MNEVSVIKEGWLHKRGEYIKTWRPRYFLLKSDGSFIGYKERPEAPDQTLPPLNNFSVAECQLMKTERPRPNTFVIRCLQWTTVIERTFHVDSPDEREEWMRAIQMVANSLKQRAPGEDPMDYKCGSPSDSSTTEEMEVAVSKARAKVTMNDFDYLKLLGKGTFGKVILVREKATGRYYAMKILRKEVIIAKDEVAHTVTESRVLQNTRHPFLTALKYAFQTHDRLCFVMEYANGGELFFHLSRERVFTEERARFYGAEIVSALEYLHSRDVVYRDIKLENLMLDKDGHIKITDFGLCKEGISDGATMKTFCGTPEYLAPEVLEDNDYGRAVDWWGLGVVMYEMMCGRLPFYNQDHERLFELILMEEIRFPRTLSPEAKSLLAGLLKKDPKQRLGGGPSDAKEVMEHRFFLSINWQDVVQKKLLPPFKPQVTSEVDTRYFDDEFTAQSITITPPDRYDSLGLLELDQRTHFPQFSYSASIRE

[3] = biological target: TTBK2 (Homo sapiens, UniProt Q6IQ55)
TTBK2, sequence (Q6IQ55 whole entry): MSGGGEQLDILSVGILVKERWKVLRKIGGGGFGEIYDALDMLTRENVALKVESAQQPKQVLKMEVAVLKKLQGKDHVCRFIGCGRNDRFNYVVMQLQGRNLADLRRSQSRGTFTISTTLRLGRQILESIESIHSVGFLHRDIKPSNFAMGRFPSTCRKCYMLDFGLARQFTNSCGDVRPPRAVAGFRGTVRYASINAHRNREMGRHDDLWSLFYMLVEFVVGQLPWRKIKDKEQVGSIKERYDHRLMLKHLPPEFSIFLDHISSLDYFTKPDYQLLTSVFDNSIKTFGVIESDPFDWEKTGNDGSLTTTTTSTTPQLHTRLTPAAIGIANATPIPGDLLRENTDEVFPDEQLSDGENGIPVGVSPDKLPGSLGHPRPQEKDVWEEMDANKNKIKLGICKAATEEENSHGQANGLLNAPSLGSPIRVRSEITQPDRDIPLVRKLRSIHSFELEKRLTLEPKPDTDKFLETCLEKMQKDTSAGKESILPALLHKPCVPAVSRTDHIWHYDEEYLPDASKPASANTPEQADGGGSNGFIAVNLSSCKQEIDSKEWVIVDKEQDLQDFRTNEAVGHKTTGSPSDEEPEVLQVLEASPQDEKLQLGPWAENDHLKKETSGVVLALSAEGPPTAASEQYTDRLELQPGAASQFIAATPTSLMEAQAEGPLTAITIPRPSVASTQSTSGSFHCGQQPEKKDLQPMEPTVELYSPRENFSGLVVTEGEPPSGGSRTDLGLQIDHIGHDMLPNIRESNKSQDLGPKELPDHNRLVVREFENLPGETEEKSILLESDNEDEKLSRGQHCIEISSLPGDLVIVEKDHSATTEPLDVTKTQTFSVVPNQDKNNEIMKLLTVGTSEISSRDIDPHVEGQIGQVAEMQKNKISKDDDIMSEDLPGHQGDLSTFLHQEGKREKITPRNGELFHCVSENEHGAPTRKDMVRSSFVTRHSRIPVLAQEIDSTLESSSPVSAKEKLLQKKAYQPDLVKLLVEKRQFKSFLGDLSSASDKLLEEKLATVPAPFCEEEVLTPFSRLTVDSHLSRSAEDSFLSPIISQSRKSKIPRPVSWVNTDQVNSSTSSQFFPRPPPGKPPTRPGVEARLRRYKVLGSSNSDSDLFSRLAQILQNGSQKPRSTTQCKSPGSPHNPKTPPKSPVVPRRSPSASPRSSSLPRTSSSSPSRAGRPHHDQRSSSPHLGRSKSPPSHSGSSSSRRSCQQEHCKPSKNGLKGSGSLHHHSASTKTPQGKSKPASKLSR

[4] = biological target: T2, TAO1 (Homo sapiens, UniProt Q7L7X3)
T2 sequence (Q7L7X3 1-1001): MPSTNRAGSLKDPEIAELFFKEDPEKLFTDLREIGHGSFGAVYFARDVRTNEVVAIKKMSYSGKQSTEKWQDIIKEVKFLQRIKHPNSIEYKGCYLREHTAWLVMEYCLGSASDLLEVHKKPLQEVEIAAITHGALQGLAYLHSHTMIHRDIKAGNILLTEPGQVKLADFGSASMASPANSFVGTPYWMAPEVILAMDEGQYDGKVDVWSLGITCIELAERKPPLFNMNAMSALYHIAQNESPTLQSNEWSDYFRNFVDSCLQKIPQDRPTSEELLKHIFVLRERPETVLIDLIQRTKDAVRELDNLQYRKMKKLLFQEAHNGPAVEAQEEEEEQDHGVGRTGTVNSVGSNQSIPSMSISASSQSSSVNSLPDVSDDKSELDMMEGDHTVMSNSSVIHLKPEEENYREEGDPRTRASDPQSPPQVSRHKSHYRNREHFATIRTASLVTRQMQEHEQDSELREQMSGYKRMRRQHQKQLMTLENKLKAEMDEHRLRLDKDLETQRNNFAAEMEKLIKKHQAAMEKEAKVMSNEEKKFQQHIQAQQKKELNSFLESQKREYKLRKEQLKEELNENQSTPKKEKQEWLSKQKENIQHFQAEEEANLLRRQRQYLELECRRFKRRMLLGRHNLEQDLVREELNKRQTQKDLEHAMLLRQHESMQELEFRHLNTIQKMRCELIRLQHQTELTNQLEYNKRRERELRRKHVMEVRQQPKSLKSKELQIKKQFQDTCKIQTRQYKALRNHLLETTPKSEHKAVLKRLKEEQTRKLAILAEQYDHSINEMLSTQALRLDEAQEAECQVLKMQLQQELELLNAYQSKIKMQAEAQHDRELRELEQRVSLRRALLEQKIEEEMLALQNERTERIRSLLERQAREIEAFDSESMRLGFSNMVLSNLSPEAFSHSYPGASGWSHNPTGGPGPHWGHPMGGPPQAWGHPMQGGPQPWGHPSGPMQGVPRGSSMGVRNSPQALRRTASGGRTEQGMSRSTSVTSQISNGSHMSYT

[5] = biological target: T3, BRSK1 (Homo sapiens, UniProt Q8TDC3)
T3 sequence (Q8TDC3 1-778): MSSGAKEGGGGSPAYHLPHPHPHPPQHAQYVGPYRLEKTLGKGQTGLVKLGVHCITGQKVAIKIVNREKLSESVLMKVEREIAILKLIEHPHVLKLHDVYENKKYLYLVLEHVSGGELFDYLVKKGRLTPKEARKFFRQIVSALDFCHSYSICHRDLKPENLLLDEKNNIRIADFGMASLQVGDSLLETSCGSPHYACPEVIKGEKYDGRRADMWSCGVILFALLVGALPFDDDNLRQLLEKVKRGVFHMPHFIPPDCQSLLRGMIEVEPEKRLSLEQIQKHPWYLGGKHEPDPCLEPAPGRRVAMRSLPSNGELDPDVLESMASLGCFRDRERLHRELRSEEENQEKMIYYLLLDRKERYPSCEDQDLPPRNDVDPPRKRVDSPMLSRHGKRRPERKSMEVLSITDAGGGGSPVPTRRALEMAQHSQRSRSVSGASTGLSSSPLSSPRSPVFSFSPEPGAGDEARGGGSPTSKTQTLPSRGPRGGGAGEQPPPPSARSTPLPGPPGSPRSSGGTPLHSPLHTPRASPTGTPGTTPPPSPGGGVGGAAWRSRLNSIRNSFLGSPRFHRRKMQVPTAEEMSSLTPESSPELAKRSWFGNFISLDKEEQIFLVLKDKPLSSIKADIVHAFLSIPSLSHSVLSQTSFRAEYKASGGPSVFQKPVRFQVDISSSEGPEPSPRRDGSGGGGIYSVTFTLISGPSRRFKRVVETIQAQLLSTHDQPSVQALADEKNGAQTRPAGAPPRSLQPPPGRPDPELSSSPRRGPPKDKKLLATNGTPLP

[6] = biological target: HIPK3 (Homo sapiens, UniProt Q9H422)
HIPK3, sequence (Q9H422 whole entry): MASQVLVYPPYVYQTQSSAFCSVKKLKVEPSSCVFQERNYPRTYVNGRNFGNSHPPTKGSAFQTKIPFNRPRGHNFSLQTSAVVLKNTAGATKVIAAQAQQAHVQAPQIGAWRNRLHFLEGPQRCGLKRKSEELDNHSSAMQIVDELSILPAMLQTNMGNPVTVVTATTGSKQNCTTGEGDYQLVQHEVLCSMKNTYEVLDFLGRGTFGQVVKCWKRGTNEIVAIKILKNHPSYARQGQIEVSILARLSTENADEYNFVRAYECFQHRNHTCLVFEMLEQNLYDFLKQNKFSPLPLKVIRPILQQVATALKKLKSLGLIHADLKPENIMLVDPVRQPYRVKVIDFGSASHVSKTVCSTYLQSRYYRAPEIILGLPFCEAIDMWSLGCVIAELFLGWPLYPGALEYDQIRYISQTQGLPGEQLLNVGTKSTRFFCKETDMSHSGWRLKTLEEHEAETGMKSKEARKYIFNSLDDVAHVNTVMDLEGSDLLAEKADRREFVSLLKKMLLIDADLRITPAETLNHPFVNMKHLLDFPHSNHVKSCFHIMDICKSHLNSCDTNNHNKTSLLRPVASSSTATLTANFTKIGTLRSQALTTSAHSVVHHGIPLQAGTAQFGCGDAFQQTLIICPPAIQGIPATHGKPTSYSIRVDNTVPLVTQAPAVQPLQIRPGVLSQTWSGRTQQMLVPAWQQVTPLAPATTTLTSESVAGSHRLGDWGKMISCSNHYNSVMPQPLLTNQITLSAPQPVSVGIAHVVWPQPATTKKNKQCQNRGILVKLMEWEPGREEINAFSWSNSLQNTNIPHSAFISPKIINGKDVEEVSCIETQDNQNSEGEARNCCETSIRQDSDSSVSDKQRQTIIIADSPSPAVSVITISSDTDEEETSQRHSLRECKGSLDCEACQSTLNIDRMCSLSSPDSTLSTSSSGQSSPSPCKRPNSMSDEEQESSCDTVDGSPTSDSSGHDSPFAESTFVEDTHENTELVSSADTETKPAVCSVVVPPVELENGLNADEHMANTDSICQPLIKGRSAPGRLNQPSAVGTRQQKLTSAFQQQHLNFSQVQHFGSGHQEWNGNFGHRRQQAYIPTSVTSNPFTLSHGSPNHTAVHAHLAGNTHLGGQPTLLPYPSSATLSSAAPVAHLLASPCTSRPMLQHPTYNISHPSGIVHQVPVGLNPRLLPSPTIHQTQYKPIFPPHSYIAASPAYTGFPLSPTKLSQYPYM

[7] = biological target: IRAK1 (Homo sapiens, UniProt P51617)
IRAK1, sequence (P51617 whole entry): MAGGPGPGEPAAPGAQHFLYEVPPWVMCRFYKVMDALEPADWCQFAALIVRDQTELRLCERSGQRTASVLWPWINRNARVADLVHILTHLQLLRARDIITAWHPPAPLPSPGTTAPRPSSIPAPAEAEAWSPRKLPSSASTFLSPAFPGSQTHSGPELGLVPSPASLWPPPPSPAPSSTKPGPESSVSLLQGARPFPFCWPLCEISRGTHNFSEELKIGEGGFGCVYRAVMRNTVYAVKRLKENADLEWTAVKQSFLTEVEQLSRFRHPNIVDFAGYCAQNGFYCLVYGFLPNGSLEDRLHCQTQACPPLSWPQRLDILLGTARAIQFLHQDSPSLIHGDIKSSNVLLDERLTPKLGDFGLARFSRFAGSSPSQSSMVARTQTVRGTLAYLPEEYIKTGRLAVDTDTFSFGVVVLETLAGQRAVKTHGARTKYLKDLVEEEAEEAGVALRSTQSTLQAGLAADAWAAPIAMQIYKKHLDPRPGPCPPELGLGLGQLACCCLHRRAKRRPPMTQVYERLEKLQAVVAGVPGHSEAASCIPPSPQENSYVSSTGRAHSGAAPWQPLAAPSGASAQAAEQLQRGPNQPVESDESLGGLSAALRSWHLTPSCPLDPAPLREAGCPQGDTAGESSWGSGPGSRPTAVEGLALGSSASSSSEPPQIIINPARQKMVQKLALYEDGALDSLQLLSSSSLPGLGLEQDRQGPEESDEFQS

Compound `COc1cc(Nc2c(C#N)cnc3cc(OCCCN4CCN(C)CC4)c(OC)cc23)c(Cl)cc1Cl` [Bosutinib, bosutinib] has a remaining activity at 0.1 µM [1] of 97 ± 2%, a remaining activity at 1 µM [1] of 125 ± 1% and a remaining activity at 0.1 µM [2] of 102 ± 6%. The remaining activity at 1 µM [2] was 90 ± 3%, the remaining activity at 0.1 µM [3] was 87 ± 6% and the remaining activity at 1 µM [3] was 92 ± 6%. It also gave a remaining activity at 1 µM [4] of 102 ± 7%, a remaining activity at 0.1 µM [5] of 101 ± 1% and a remaining activity at 1 µM [5] of 112 ± 5%. The remaining activity at 1 µM [6] was 66 ± 5%, the remaining activity at 0.1 µM [7] was 77 ± 3% and the remaining activity at 1 µM [7] was 65%.
`Cc1nc(Nc2ncc(C(=O)Nc3c(C)cccc3Cl)s2)cc(N2CCN(CCO)CC2)n1` [Dasatinib] showed a remaining activity at 0.1 µM [1] of 129 ± 14%, a remaining activity at 1 µM [1] of 128 ± 7% and a remaining activity at 0.1 µM [2] of 94 ± 11%. For the same compound, the remaining activity at 1 µM [2] was 94 ± 2%, the remaining activity at 0.1 µM [3] was 110 ± 5% and the remaining activity at 1 µM [3] was 117 ± 7%. It also gave a remaining activity at 0.1 µM ([4]; 0.1 µM) of 120 ± 9%, a remaining activity at 1 µM [4] of 95 ± 7% and a remaining activity at 0.1 µM [5] of 126%. The remaining activity at 1 µM [5] was 123 ± 1%, the remaining activity at 0.1 µM ([6]; 0.1 µM) was 102 ± 3% and the remaining activity at 1 µM [6] was 113 ± 7%. For the same compound, the remaining activity at 0.1 µM [7] was 96 ± 1% and the remaining activity at 1 µM [7] was 108 ± 3%.
